Reference: ChEMBL document CHEMBL4390668, “Discovery and Structural Optimization of Acridones as Broad-Spectrum Antimalarials” (J Med Chem, 2019)
Active and inactive are the calls of the source. The rule behind the calls is not given here.

Assays:
[1] = AUC (0 to infinity) in ICR mouse liver at 80 mg/kg, po administered as single dose; assay type: ADME, organism-based; parameters: dose 80 mg/kg, route oral, time infinity
[2] = AUC (0 to last) in ICR mouse liver at 80 mg/kg, po administered as single dose; assay type: ADME, organism-based; parameters: dose 80 mg/kg, route oral, time 0 - last
[3] = Apparent volume of distribution in ICR mouse liver at 80 mg/kg, po administered as single dose; assay type: ADME, organism-based; conditions: in vivo
[4] = Tmax in ICR mouse liver at 80 mg/kg, po administered as single dose; assay type: ADME, organism-based
[5] = AUC (0 to last) in ICR mouse plasma at 80 mg/kg, po administered as single dose; assay type: ADME, organism-based; parameters: dose 80 mg/kg, route oral, time 0 - last
[6] = Cmax in ICR mouse liver at 80 mg/kg, po administered as single dose; assay type: ADME, organism-based; parameters: dose 80 mg/kg, route oral
[7] = Cmax in ICR mouse plasma at 80 mg/kg, po administered as single dose; assay type: ADME, organism-based; parameters: dose 80 mg/kg, route oral; conditions: ICR, plasma, read-out: Cmax
[8] = Mean residence time in ICR mouse liver at 80 mg/kg, po administered as single dose; assay type: ADME, organism-based
[9] = AUC (0 to infinity) in ICR mouse plasma at 80 mg/kg, po administered as single dose; assay type: ADME, organism-based; parameters: dose 80 mg/kg, route oral, time infinity
[10] = Mean residence time in ICR mouse plasma at 80 mg/kg, po administered as single dose; assay type: ADME, organism-based
Plasmodium berghei [11] = test: Antimalarial activity against blood stage luciferase-expressing Plasmodium berghei ANKA 676m1cl1 sporozoites infected in C57BL/6 mouse assessed as suppression of parasitemia at 25 mg/kg, po pretreated for 1 day followed by parasite infection and subsequent compound dosing for 2 days measured up to 30 days post-infection by YOYO1 staining based flow cytometry; assay type: functional
[12] = Tmax in ICR mouse plasma at 80 mg/kg, po administered as single dose; assay type: ADME, organism-based; conditions: ICR, plasma, read-out: Tmax
[13] = Apparent volume of distribution in ICR mouse plasma at 80 mg/kg, po administered as single dose; assay type: ADME, organism-based; conditions: in vivo
[14] = Mutagenicity in Salmonella typhimurium TA98 assessed as increase in revertant colonies up to 10 uM in absence of S9 fraction by Ames test; assay type: toxicity; conditions: salmonella enterica subsp. enterica serovar typhimurium
[15] = Half life in mouse liver microsomes at 1 uM by LC-MS analysis; assay type: ADME, Microsome
Plasmodium yoelii [16] = test: Antimalarial activity against blood stage Plasmodium yoelii MR4 MRA-428 infected in CF1 mouse assessed as suppression of parasitemia administered once daily via oral gavage for 4 days starting from 24 hrs post-infection and measured post-last dose by Giemsa-staining based microscopic analysis; assay type: functional
[17] = Toxicity in CF1 mouse infected with blood stage Plasmodium yoelii MR4 MRA-428 assessed as behavioral changes at 80 mg/kg, po administered once daily via gavage for 4 days starting from for 4 days starting from 24 hrs post-infection and measured daily during compound dosing; assay type: organism-based; conditions: in vivo
Plasmodium falciparum [18] = test: Antimalarial activity against multidrug-resistant Plasmodium falciparum Dd2 infected in human erythrocytes by SYBR green 1-based fluorescence assay; assay type: functional, organism-based
[19] = Apparent clearance in ICR mouse plasma at 80 mg/kg, po administered as single dose; assay type: ADME, organism-based; conditions: read-out: CL(app) (converted)
Plasmodium yoelii [20] = test: Antimalarial activity against blood stage Plasmodium yoelii MR4 MRA-428 infected in CF1 mouse assessed as suppression of parasitemia at 80 mg/kg, po administered once daily via gavage for 4 days starting from 24 hrs post-infection and measured at weekly intervals for 28 days by Giemsa-staining based microscopic analysis; assay type: functional
hERG (KCNH2) = hERG (KCNH2) (Homo sapiens, UniProt Q12809); test: Inhibition of human ERG expressed in CHOK1 cells at 10 uM by automated patch clamp method relative to control; assay type: cell-based; conditions: CHO-K1 cells that express hERG
[21] = Mutagenicity in Salmonella typhimurium TA98 assessed as increase in revertant colonies up to 10 uM in presence of S9 fraction by Ames test; assay type: toxicity, subcellular; conditions: salmonella enterica subsp. enterica serovar typhimurium
[22] = Toxicity in CF1 mouse infected with blood stage Plasmodium yoelii MR4 MRA-428 assessed as clinical toxicity at 80 mg/kg, po administered once daily via gavage for 4 days starting from for 4 days starting from 24 hrs post-infection and measured daily during compound dosing; assay type: organism-based; conditions: in vivo
Plasmodium falciparum [23] = test: Antimalarial activity against drug-resistant Plasmodium falciparum 3D7 harboring A82T/V259L double mutant infected in human erythrocytes after 72 hrs by SYBR green 1-based fluorescence assay; assay type: functional, organism-based; conditions: 3D7, 72 h
[24] = Apparent elimination half life in ICR mouse plasma at 80 mg/kg, po administered as single dose; assay type: ADME, organism-based; conditions: ICR, plasma, read-out: betat1/2(app) (converted)
Plasmodium berghei [25] = test: Antimalarial activity against blood stage luciferase-expressing Plasmodium berghei ANKA 676m1cl1 sporozoites infected in C57BL/6 mouse assessed as suppression of parasitemia at 10 mg/kg, po pretreated for 1 day followed by parasite infection and subsequent compound dosing for 2 days measured up to 30 days post-infection by YOYO1 staining based flow cytometry; assay type: functional
Plasmodium falciparum [26] = test: Antimalarial activity against atovaquone-resistant Plasmodium falciparum Tm90-C2B infected in human erythrocytes by SYBR green 1-based fluorescence assay; assay type: functional, organism-based
Plasmodium falciparum [27] = test: Antimalarial activity against drug-resistant Plasmodium falciparum Dd2 harboring M133I/A138T double mutant infected in human erythrocytes after 72 hrs by SYBR green 1-based fluorescence assay; assay type: functional, organism-based; conditions: Dd2, 72 h
Plasmodium berghei [28] = test: Antimalarial activity against liver stage luciferase-expressing Plasmodium berghei ANKA 676m1cl1 sporozoites infected in C57BL/6 mouse assessed as suppression of parasitemia at 10 mg/kg, po pretreated for 1 day followed by parasite infection and subsequent compound dosing for 2 days measured at 24 to 48 hrs post-infection by luciferin-based real-time imaging analysis; assay type: functional
Plasmodium falciparum [29] = test: Inhibition of Plasmodium falciparum cytochrome b-c1
[30] = Mutagenicity in Salmonella typhimurium TA100 assessed as increase in revertant colonies up to 10 uM in presence of S9 fraction by Ames test; assay type: toxicity, subcellular; conditions: salmonella enterica subsp. enterica serovar typhimurium
[31] = Apparent elimination half life in ICR mouse liver at 80 mg/kg, po administered as single dose; assay type: ADME, organism-based; conditions: read-out: betat1/2(app) (converted)
[32] = Half life in human liver microsomes at 1 uM by LC-MS analysis; assay type: ADME, Microsome
Plasmodium berghei [33] = test: Antimalarial activity against luciferase-expressing Plasmodium berghei ANKA 676m1cl1 sporozoites infected in human HepG2A16 cells measured after 45 hrs by luciferase-luciferin based reporter assay; assay type: functional, organism-based; conditions: ANKA 676m1cl1, HepG2A16, 45 h
[34] = Mutagenicity in Salmonella typhimurium TA100 assessed as increase in revertant colonies up to 10 uM in absence of S9 fraction by Ames test; assay type: toxicity; conditions: salmonella enterica subsp. enterica serovar typhimurium
Plasmodium falciparum [35] = test: Antimalarial activity against multidrug-resistant Plasmodium falciparum 7G8 infected in human erythrocytes by SYBR green 1-based fluorescence assay; assay type: functional, organism-based
Plasmodium falciparum [36] = test: Antimalarial activity against drug-resistant Plasmodium falciparum Dd2 harboring V259L mutant infected in human erythrocytes after 72 hrs by SYBR green 1-based fluorescence assay; assay type: functional, organism-based; conditions: Dd2, 72 h
Plasmodium berghei [37] = test: Antimalarial activity against blood stage luciferase-expressing Plasmodium berghei ANKA 676m1cl1 sporozoites infected in C57BL/6 mouse assessed as suppression of parasitemia at 4 mg/kg, po pretreated for 1 day followed by parasite infection and subsequent compound dosing for 2 days measured up to 30 days post-infection by YOYO1 staining based flow cytometry; assay type: functional
Plasmodium falciparum [38] = test: Antimalarial activity against Plasmodium falciparum 3D7 infected in human erythrocytes after 72 hrs by SYBR green 1-based fluorescence assay; assay type: functional, organism-based; conditions: 3D7, 72 h
Plasmodium falciparum [39] = test: Ratio of IC50 for drug-resistant Plasmodium falciparum 3D7 harboring A82T/V259L double mutant infected in human erythrocytes to IC50 for Plasmodium falciparum 3D7 infected in human erythrocytes; assay type: functional
Plasmodium falciparum [40] = test: Ratio of IC50 for drug-resistant Plasmodium falciparum Dd2 harboring M133I mutant infected in human erythrocytes to IC50 for multidrug-resistant Plasmodium falciparum Dd2 infected in human erythrocytes; assay type: functional
[41] = Selectivity index, ratio of IC50 for human HepG2 cells to IC50 for chloroquine-sensitive Plasmodium falciparum D6 infected in human erythrocytes; assay type: toxicity, cell-based; conditions: read-out: Ratio IC50
Plasmodium berghei [42] = test: Antimalarial activity against liver stage luciferase-expressing Plasmodium berghei ANKA 676m1cl1 sporozoites infected in C57BL/6 mouse assessed as suppression of parasitemia at 40 to 160 mg/kg, po pretreated for 1 day followed by parasite infection and subsequent compound dosing for 2 days measured at 24 to 48 hrs post-infection by luciferin-based real-time imaging analysis; assay type: functional
Plasmodium falciparum [43] = test: Ratio of IC50 for drug-resistant Plasmodium falciparum Dd2 harboring M133I/A138T double mutant infected in human erythrocytes to IC50 for multidrug-resistant Plasmodium falciparum Dd2 infected in human erythrocytes; assay type: functional
Plasmodium falciparum [44] = test: Antimalarial activity against drug-resistant Plasmodium falciparum Dd2 harboring M133I mutant infected in human erythrocytes after 72 hrs by SYBR green 1-based fluorescence assay; assay type: functional, organism-based; conditions: Dd2, 72 h
Plasmodium falciparum [45] = test: Ratio of IC50 for drug-resistant Plasmodium falciparum Dd2 harboring V259L mutant infected in human erythrocytes to IC50 for multidrug-resistant Plasmodium falciparum Dd2 infected in human erythrocytes; assay type: functional
Plasmodium falciparum [46] = test: Antimalarial activity against chloroquine-sensitive Plasmodium falciparum D6 infected in human erythrocytes by SYBR green 1-based fluorescence assay; assay type: functional, organism-based
HepG2 = test: Cytotoxicity against human HepG2 cells measured after 24 to 36 hrs by resazurin dye based fluorescence assay; assay type: cell-based

Sequence of hERG (KCNH2) (Q12809 whole entry): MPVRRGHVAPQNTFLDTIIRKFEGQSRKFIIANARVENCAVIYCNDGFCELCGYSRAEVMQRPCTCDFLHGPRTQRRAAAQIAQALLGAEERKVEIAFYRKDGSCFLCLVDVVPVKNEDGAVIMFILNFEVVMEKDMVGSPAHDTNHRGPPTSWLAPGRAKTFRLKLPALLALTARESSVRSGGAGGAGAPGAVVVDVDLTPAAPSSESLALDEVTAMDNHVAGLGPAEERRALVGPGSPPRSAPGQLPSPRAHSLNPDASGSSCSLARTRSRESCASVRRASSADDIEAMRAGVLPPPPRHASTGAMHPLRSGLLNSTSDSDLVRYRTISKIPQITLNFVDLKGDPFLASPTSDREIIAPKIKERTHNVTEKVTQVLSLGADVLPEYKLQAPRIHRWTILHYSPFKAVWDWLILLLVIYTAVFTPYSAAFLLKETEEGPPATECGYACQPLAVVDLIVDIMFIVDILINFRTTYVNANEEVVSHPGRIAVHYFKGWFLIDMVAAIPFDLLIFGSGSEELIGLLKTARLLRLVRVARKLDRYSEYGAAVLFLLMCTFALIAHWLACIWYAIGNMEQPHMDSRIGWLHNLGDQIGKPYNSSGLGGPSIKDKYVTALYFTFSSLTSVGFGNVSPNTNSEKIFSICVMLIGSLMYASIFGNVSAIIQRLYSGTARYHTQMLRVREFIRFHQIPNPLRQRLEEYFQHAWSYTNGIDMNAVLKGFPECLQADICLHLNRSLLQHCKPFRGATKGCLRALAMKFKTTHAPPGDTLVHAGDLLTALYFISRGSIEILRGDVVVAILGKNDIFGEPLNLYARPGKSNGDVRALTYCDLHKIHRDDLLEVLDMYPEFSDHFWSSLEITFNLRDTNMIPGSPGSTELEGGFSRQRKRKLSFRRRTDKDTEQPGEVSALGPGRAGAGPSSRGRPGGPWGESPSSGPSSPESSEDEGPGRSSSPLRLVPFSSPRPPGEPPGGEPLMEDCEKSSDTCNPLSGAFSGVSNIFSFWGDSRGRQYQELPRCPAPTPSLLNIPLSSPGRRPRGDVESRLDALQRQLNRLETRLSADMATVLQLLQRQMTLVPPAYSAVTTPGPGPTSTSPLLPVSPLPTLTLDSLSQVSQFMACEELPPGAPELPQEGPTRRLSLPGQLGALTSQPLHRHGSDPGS

Row | SMILES | AUC(0-inf) [1] | AUC(0-t) [2] | Vz [3] | Tmax [4] | AUC(0-t) [5] | Cmax [6] | Cmax [7] | MRT [8] | MRT [10] | Tmax [12] | Vz [13] | Activity [14] | half-life at 1 µM [15] | ED50 (Plasmodium yoelii [16]) | ED90 (Plasmodium yoelii [16]) | IC50 (Plasmodium falciparum [18]) | inhibition at 10 µM (hERG (KCNH2)) | Activity [21] | IC50 (Plasmodium falciparum [23]) | IC50 (Plasmodium falciparum [26]) | other results
1 | COc1cc(NC(C)CCCN)c2ncccc2c1 (stereo not drawn) [PRIMAQUINE] | 27700 ng·h/mL | 27400 ng·h/mL | 4.418 L/kg | 0.5 h | 1260 ng·h/mL | 8150 ng/mL | 531 ng/mL | 4.5 h | 2.3 h | 0.5 h | 43.801 L/kg | – | – | – | – | – | – | – | – | – | AUC ([9]; in vivo): 1314 ng·h/mL; Activity (Plasmodium berghei [11]): 100%
2 | CCCCN(CCCC)CCOc1ccc2c(=O)c3c(Cl)c(Cl)ccc3[nH]c2c1 | 169000 ng·h/mL | 168000 ng·h/mL | 3.605 L/kg | 2.75 h | 3050 ng·h/mL | 21300 ng/mL | 226 ng/mL | 10.1 h | 6.96 h | 2.75 h | 223.865 L/kg | Non-Toxic | 0.35 h | 1.03 mg/kg.day | 1.64 mg/kg.day | 0.041 to 14 nM | 57% | Non-Toxic | 57 nM | 228 nM | Activity [17]: Non-Toxic; CL/F [19]: 431 mL/min/kg; Activity (Plasmodium yoelii [20]): 100%; Activity [22]: Non-Toxic; half-life [24]: 6 h; Activity (Plasmodium berghei [25]): 100%; IC50 (Plasmodium falciparum [27]): 38 nM; Activity (Plasmodium berghei [28]): 100%; inhibition (Plasmodium falciparum [29]): inactive; Activity [30]: Non-Toxic; half-life [31]: 4.63 h; AUC(0-inf) ([9]; ICR, plasma): 3240 ng·h/mL; half-life at 1 µM [32]: 0.2 h; IC50 (Plasmodium berghei [33]): 0.5 nM; Activity [34]: Non-Toxic; IC50 (Plasmodium falciparum [35]): 0.043 nM; IC50 (Plasmodium falciparum [36]): 140 nM; Activity (Plasmodium berghei [37]): 100%
3 | CCN(CC)CCOc1ccc2c(=O)c3c(Cl)c(Cl)ccc3[nH]c2c1 | – | – | – | – | – | – | – | – | – | – | – | Non-Toxic | 0.833 h | 1.8 mg/kg.day | 8.8 mg/kg.day | 12 to 40 nM | 78% | Non-Toxic | 1520 nM | 1260 nM | IC50 (Plasmodium falciparum [38]): 28 nM; Ratio IC50 (Plasmodium falciparum [39]): 54; Ratio IC50 (Plasmodium falciparum [40]): 6; selectivity ratio [41]: 1440; Activity (Plasmodium berghei [42]): 100%; Ratio IC50 (Plasmodium falciparum [43]): 42; IC50 (Plasmodium falciparum [27]): 1680 nM; inhibition (Plasmodium falciparum [29]): inactive; Activity [30]: Non-Toxic; half-life at 1 µM [32]: > 1 h; IC50 (Plasmodium berghei [33]): 5.5 nM; Activity [34]: Non-Toxic; IC50 (Plasmodium falciparum [35]): 17 nM; IC50 (Plasmodium falciparum [44]): 242 nM; Ratio IC50 (Plasmodium falciparum [45]): 36; IC50 (Plasmodium falciparum [36]): 1440 nM; IC50 (Plasmodium falciparum [46]): 10 nM; IC50 (HepG2): 14400 nM
